Values quoted from earlier work in paper PMC6311893, “Computational prediction of plasma protein binding of cyclic peptides from small molecule experimental data using sparse modeling techniques” (BMC Bioinformatics, 2018).

Tested on: plasma protein
Details: cited from earlier work

SMILES | PPB (fb)
Cc1ccc(C(N)C(=O)NC2C(=O)N3C2SC(C)(C)C3C(=O)O)cc1 (stereo not shown) [penicillin27] | 0.6

Same assay, conditions: fraction bound to plasma protein; small molecule dataset, sheet 1-SM (Set Dte = test, Dtr = training); ref Ingle et al.; cited from earlier work

SMILES | PPB (fb)
Clc1ccc(COC(Cn2ccnc2)c2ccc(Cl)cc2Cl)c(Cl)c1 (stereo not shown) [miconazole] | 0.95
CCN(CC)C(=O)C1(c2ccccc2)CC1CN (stereo not shown) [milnacipran] | 0.13
OC(CNCC(O)C1CCc2cc(F)ccc2O1)C1CCc2cc(F)ccc2O1 (stereo not shown) [nebivolol] | 0.98
O=C1NCCN1c1ncc([N+](=O)[O-])s1 [niridazole] | 0.85
C#CC1(O)CC[C@H]2[C@@H]3CCC4=CC(=O)CC[C@@H]4[C@H]3CC[C@@]21CC (stereo partly shown) [norgestrel] | 0.97
C=CCOc1ccccc1OCC(O)CNC(C)C (stereo not shown) [oxprenolol] | 0.77
NCCC(O)(P(=O)(O)O)P(=O)(O)O [pamidronic acid] | 0.14
CC1(C)SC2C(NC=O)C(=O)N2C1C(=O)O (stereo not shown) [penicillin1] | 0.18
CCCCCCC(N)C(=O)NC1C(=O)N2C1SC(C)(C)C2C(=O)O (stereo not shown) [penicillin13] | 0.66
COc1cccc(OC)c1CC(=O)NC1C(=O)N2C1SC(C)(C)C2C(=O)O (stereo not shown) [penicillin18] | 0.77
CC1(C)SC2C(NC(=O)C(Br)c3ccccc3)C(=O)N2C1C(=O)O (stereo not shown) [penicillin21] | 0.82
CC1(C)SC2C(NC(=O)C(Cl)c3cccc(Cl)c3)C(=O)N2C1C(=O)O (stereo not shown) [penicillin23] | 0.94
CC1(C)SC2C(NC(=O)C(Cl)c3ccc(Cl)c(Cl)c3)C(=O)N2C1C(=O)O (stereo not shown) [penicillin25] | 0.97
CC1(C)SC2C(NC(=O)C(N)c3ccc(Cl)c(Cl)c3)C(=O)N2C1C(=O)O (stereo not shown) [penicillin29] | 0.82
CC1(C)SC2C(NC(=O)C(F)c3cccc(N)c3)C(=O)N2C1C(=O)O (stereo not shown) [penicillin30] | 0.26

Same assay, conditions: fraction bound to plasma protein; small molecule dataset, sheet 1-SM; ref Ingle et al.; cited from earlier work

SMILES | PPB (fb)
CN1CCN2c3ccccc3Cc3ccccc3C2C1 (stereo not shown) [mianserin] | 0.93
CC#C[C@]1(O)CC[C@H]2[C@@H]3CCC4=CC(=O)CCC4=C3[C@@H](c3ccc(N(C)C)cc3)C[C@@]21C [mifepristone] | 0.98
Nc1cc(N2CCCCC2)nc(N)[n+]1[O-] [minoxidil] | 0.03
CN(c1nccc(=O)[nH]1)C1CCN(c2nc3ccccc3n2Cc2ccc(F)cc2)CC1 [mizolastine] | 0.98
COc1cc2c(cc1OC)CN(C(=O)[C@H](C)N[C@@H](CCc1ccccc1)C(=O)O)[C@H](C(=O)O)C2 [moexiprilat] | 0.5
CCOC(=O)Nc1ccc2c(c1)N(C(=O)CCN1CCOCC1)c1ccccc1S2 [moracizine] | 0.88
C/C(=C\C(=O)OCCCCCCCCC(=O)O)C[C@@H]1OC[C@H](C[C@@H]2O[C@H]2[C@@H](C)[C@H](C)O)[C@@H](O)[C@H]1O [mupirocin] | 0.96
COc1c(C)c2c(c(O)c1C/C=C(\C)CCC(=O)O)C(=O)OC2 [mycophenolic acid] | 0.96
CC(=O)NC(CS)C(=O)O (stereo not shown) [n-acetylcysteine] | 0.83
COc1ccc2cc(CCC(C)=O)ccc2c1 [nabumetone] | 0.99
CCN(CC)CCOC(=O)C(Cc1cccc2ccccc12)CC1CCCO1 (stereo not shown) [nafronyl] | 0.9
CCn1cc(C(=O)O)c(=O)c2ccc(C)nc21 [nalidixic acid] | 0.94
CCCc1c2oc(C(=O)O)cc(=O)c2cc2c(=O)cc(C(=O)O)n(CC)c12 [nedocromil] | 0.8
CN1CCOC(c2ccccc2)c2ccccc2C1 (stereo not shown) [nefopam] | 0.73
Cc1c(O)cccc1C(=O)N[C@@H](CSc1ccccc1)[C@H](O)CN1C[C@H]2CCCC[C@H]2C[C@H]1C(=O)NC(C)(C)C [nelfinavir] | 0.99
NCC1OC(OC2C(CO)OC(OC3C(O)C(N)CC(N)C3OC3OC(CN)C(O)C(O)C3N)C2O)C(N)C(O)C1O (stereo not shown) [neomycin] | 0.2
O=C(O)c1cccnc1 [niacin] | 0.22
CO[C@]12C[C@@H](COC(=O)c3cncc(Br)c3)CN(C)[C@@H]1Cc1cn(C)c3cccc2c13 [nicergoline] | 0.95
O=C(NCCO[N+](=O)[O-])c1cccnc1 [nicorandil] | 0.25
NC[C@H](O)c1ccc(O)c(O)c1 [norepinephrine] | 0.5
C#C[C@]1(O)CC[C@H]2[C@@H]3CCC4=CC(=O)CC[C@@H]4[C@H]3CC[C@@]21C [norethisterone] | 0.8
CCn1cc(C(=O)O)c(=O)c2cc(F)c(N3CCNCC3)cc21 [norfloxacin] | 0.15
O=C(O)c1cc(/N=N/c2ccc(O)c(C(=O)O)c2)ccc1O [olsalazine] | 0.99
OCCN1CCN(CCCN2c3ccccc3C=Cc3ccccc32)CC1 [opipramol] | 0.9
CCCCCCCCCCC[C@@H](C[C@@H]1OC(=O)[C@H]1CCCCCC)OC(=O)[C@H](CC(C)C)NC=O [orlistat] | 0.99
Cc1ncc([N+](=O)[O-])n1CC(O)CCl (stereo not shown) [ornidazole] | 0.15

SMILES | PPB (fb)
Cc1ccccc1C(OCCN(C)C)c1ccccc1 (stereo not shown) [orphenadrine] | 0.95
O=C(O)C(=O)O [oxalic acid] | 0
O=c1[nH]c2ccccc2n1CCCN1CCN(C(c2ccccc2)c2ccccc2)CC1 [oxatomide] | 0.91
NC(=O)N1c2ccccc2CC(=O)c2ccccc21 [oxcarbazepine] | 0.45
CCCCC1C(=O)N(c2ccccc2)N(c2ccc(O)cc2)C1=O (stereo not shown) [oxyphenbutazone] | 0.99
O=C(O)/C=C/c1ccc(O)cc1 [p-coumaric acid] | 0.65
O=C(O)c1ccc(O)cc1 [p-hydroxybenzoic acid] | 0.35
CCC1(C)OC(=O)N(C)C1=O (stereo not shown) [paramethadione] | 0
CC(C)(C)NC[C@H](O)COc1ccccc1C1CCCC1 [penbutolol] | 0.95
CC(C)(S)[C@@H](N)C(=O)O [penicillamine] | 0.8
CCCC(CC)C(CCC)C(=O)NC1C(=O)N2C1SC(C)(C)C2C(=O)O (stereo not shown) [penicillin4] | 0.93
COCC(=O)NC1C(=O)N2C1SC(C)(C)C2C(=O)O (stereo not shown) [penicillin5] | 0.07
CCOCC(=O)NC1C(=O)N2C1SC(C)(C)C2C(=O)O (stereo not shown) [penicillin6] | 0.28
CCCCOCC(=O)NC1C(=O)N2C1SC(C)(C)C2C(=O)O (stereo not shown) [penicillin7] | 0.59
CCC(CC)OCC(=O)NC1C(=O)N2C1SC(C)(C)C2C(=O)O (stereo not shown) [penicillin8] | 0.47
CCC(OC)C(=O)NC1C(=O)N2C1SC(C)(C)C2C(=O)O (stereo not shown) [penicillin9] | 0.2
CCCCC(OCC)C(=O)NC1C(=O)N2C1SC(C)(C)C2C(=O)O (stereo not shown) [penicillin10] | 0.74
CCOCCC(=O)NC1C(=O)N2C1SC(C)(C)C2C(=O)O (stereo not shown) [penicillin11] | 0.25
CCCC(N)C(=O)NC1C(=O)N2C1SC(C)(C)C2C(=O)O (stereo not shown) [penicillin12] | 0.33
CC1(C)SC2C(NC(=O)c3ccccc3)C(=O)N2C1C(=O)O (stereo not shown) [penicillin14] | 0.87
CC1(C)SC2C(NC(=O)c3ccccc3-c3ccccc3)C(=O)N2C1C(=O)O (stereo not shown) [penicillin16] | 0.91
CC(C(=O)NC1C(=O)N2C1SC(C)(C)C2C(=O)O)c1ccccc1 (stereo not shown) [penicillin19] | 0.68
CCC(CC)(CC)C(=O)NC1C(=O)N2C1SC(C)(C)C2C(=O)O (stereo not shown) [penicillin20] | 0.94
CC1(C)SC2C(NC(=O)C(Cl)c3ccccc3)C(=O)N2C1C(=O)O (stereo not shown) [penicillin22] | 0.78
CC1(C)SC2C(NC(=O)C(Cl)c3ccc(Cl)cc3)C(=O)N2C1C(=O)O (stereo not shown) [penicillin24] | 0.94
CC1(C)SC2C(NC(=O)C(N)c3ccc(Cl)cc3)C(=O)N2C1C(=O)O (stereo not shown) [penicillin28] | 0.55

Same assay, conditions: plasma; cited from earlier work

SMILES | PPB (fb)
CCC1(CC)C(=O)NCC(C)C1=O (stereo not shown) [methyprylon] | 0.6
CC[C@@H](CO)NC(=O)[C@@H]1C=C2c3cccc4c3c(cn4C)C[C@H]2N(C)C1 [methysergide] | 0.66
CO[C@H]1[C@@H](O)C[C@H](O[C@H]2[C@@H](O)C[C@H](O[C@H]3[C@@H](O)C[C@H](O[C@H]4CC[C@@]5(C)[C@H](CC[C@@H]6[C@@H]5C[C@@H](O)[C@]5(C)[C@@H](C7=CC(=O)OC7)CC[C@]65O)C4)O[C@@H]3C)O[C@@H]2C)O[C@@H]1C [metildigoxin] | 0.15
NC(=O)C[S+]([O-])C(c1ccccc1)c1ccccc1 (stereo not shown) [modafinil] | 0.6
O=[N+]([O-])OCC(CO[N+](=O)[O-])O[N+](=O)[O-] [nitroglycerin] | 0.6
C[C@@H]1O[C@@H](O[C@H]2C[C@@H](O)[C@]3(CO)[C@H]4[C@H](O)C[C@]5(C)[C@@H](C6=CC(=O)OC6)CC[C@]5(O)[C@@H]4CC[C@]3(O)C2)[C@H](O)[C@H](O)[C@H]1O [ouabain] | 0
C[C@]12COC(=O)C[C@@H]1CC[C@@H]1[C@@H]2CC[C@@]2(C)[C@H]1CC[C@]2(C)O [oxandrolone] | 0.95
CCCCCCCC(=O)NC1C(=O)N2C1SC(C)(C)C2C(=O)O (stereo not shown) [penicillin3] | 0.92
